According to patent US20090093460A1, “Compositions” (AstraZeneca AB, priority 2003, published 2009):
Read-outs that look alike come from different tables or passages of the source.

Assays:
Adrenergic α1A = target: T1, Adrenergic α1A (Rattus norvegicus, UniProt P43140); assay: Radioligand binding 203100 Adrenergic α1A
T1 construct: 203100
T1 sequence (P43140 1-466): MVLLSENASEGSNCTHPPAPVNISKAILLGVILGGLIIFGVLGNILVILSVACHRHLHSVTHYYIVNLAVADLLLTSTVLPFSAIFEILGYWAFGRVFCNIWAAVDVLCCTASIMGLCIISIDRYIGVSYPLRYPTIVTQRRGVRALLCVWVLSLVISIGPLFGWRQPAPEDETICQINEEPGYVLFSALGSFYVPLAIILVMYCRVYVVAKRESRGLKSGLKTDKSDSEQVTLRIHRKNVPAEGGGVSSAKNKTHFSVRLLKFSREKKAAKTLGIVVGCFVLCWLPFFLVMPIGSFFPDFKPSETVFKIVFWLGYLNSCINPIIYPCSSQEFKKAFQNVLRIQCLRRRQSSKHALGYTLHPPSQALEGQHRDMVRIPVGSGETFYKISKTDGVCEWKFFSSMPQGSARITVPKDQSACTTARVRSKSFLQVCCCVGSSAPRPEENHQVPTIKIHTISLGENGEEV
Excerpt: Receptor binding methods, (α-adrenergic subtype specific, are provided below.

Adrenergic α2A = target: T2, Adrenergic α2A (Homo sapiens, UniProt P08913); assay: Radioligand binding Adrenergic α2A
T2 sequence (P08913 1-465): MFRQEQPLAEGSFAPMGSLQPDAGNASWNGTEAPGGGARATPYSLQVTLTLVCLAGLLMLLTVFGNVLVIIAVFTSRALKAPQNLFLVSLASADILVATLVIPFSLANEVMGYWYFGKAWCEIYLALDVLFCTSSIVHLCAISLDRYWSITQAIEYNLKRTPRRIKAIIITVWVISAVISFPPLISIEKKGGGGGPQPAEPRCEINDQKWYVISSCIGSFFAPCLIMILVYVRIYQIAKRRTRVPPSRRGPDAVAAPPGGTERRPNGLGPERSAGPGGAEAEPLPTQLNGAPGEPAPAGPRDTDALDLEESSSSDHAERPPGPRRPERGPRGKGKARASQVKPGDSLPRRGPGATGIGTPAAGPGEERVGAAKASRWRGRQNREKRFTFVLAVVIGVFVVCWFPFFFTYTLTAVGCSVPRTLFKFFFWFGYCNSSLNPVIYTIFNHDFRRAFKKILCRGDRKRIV

5-HT1A receptors [1] = target: T3, 5-HT1A receptors (Homo sapiens, UniProt P08908); assay: PET scans of primate subjects, 5-HT1A occupancy; type: in vivo; set-up: from tissue; host or cells: brain of living primate subjects (PET); conditions: preliminary PET scans
T3 sequence (P08908 1-422): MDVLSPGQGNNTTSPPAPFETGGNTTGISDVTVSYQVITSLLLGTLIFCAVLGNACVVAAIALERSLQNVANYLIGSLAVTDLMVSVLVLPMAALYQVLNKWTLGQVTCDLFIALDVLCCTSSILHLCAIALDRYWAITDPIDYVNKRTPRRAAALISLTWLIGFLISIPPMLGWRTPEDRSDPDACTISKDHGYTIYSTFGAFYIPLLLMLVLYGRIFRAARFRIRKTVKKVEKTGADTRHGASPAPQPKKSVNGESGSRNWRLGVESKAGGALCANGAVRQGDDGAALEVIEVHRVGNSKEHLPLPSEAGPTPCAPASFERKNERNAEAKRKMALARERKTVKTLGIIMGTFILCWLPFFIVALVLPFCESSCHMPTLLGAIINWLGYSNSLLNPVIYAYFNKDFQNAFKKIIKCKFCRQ
Excerpt: (§1) The compound of Formula I is a dibenzothiazepine that has shown antidopaminergic activity.

5HT Transporter = target: T4, 5HT Transporter (Homo sapiens, UniProt P31645); assay: PET scans of primate subjects, 5HT Transporter occupancy; type: in vivo; conditions: preliminary PET scans
T4 construct: from tissue; host or cells: brain of living primate subjects (PET)
T4 sequence (P31645 whole entry, species assumed): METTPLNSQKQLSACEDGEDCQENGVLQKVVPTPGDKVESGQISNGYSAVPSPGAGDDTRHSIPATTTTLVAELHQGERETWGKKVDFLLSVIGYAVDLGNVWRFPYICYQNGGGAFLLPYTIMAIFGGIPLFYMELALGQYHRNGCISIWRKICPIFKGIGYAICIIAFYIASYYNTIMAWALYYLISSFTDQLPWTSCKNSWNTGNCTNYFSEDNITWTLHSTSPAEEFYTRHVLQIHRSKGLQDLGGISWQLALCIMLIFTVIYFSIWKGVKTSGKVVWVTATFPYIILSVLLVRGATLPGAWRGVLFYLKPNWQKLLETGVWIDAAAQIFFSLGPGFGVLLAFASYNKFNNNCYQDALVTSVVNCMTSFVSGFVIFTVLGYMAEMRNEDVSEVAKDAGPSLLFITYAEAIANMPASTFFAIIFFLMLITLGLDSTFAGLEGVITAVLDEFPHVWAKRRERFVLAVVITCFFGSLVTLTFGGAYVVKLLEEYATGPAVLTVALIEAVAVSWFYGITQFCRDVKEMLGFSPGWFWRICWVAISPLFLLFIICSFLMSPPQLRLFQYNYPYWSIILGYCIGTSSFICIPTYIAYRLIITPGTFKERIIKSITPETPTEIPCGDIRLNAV
Excerpt: as §1

mice [2] = assay: Mouse forced swim test; type: in vivo; conditions: 10.0 mg/kg sc, 15 minutes prior
Experimental: Methods: Mice were placed in cylinders of water (25.0° C.±1.5° C.) for 6 minutes. The amount of immobility was quantified during the last 4 minutes of each session. The experimental observer was blind to the treatment conditions. […] Imipramine 45.0 mg/kg and citalopram 15.0 mg/kg were measured as the salt and administered ip 60 minutes prior to the behavioural session.

mice [3] = assay: Tail suspension test; type: in vivo, mouse
Experimental: Antidepressant activity of 11-piperazin-1-yldibenzo[b,f][1,4]thiazepine was assessed in mice according to the tail suspension test. As shown in the results below, 11-piperazin-1-yldibenzo[b,f][1,4]thiazepine has antidepressant activity in mice.
In a first experiment, mice (n=10/group) were treated with vehicle, 2.0, 5.0, or 10.0 mg/kg of 11-piperazin-1-yldibenzo[b,f][1,4]thiazepine s.c. 15 minutes prior to the test session. Mice were suspended from their tails for 7 minutes. During the last 5 minutes of the test, the duration of immobility was recorded. In a second experiment, mice (n=10/group) were treated with vehicle, 30 mg/kg 11-piperazin-1-yldibenzo[b,f][1,4]thiazepine, or 30 mg/kg fluoxetine p.o. 60 minutes prior to the test session. Mice were suspended from their tails for 7 minutes. During the last 5 minutes of the test, the duration of immobility was recorded.

5-HT1A receptors [4] = target: T3, 5-HT1A receptors; assay: In vitro assay of 5HT1A agonism (GTPγ35S, CHO membranes); type: biochemical; set-up: expressed in transfected cells; host or cells: CHO
Experimental: CHO membranes (10 μg protein) expressing human 5-HT1A receptors were incubated in 100 μl of 20 mM HEPES, pH 7.4 assay buffer containing 10 mM MgCl2, 100 mM NaCl, 0.1% BSA, 20 μM GDP, 200 μg WGA-PVT beads (Amersham RPNQ0001), 200 pM GTPγ^35S (Perkin Elmer NEG-030H). 11-piperazin-1-yldibenzo[b,f][1,4]thiazepine was incubated with the above at 11 different concentrations varying from 10 μM to 170 pM in Packard OptiPlates with shaking for 1.5 hours at room temperature. […] The plates were centrifuged to settle the beads and measured in a Parkard TopCount.

mice [5] = assay: Standard apomorphine climbing mouse assay; type: in vivo; conditions: p.o.
Excerpt: The methods and procedures used can be found in Warawa et al., J. Med. Chem., 2001, 44 (3), 372-389, and are incorporated herein by reference.

c1ccc2c(c1)N=C(N1CCNCC1)c1ccccc1S2 [11-piperazin-1-yldibenzo[b,f][1,4]thiazepine]
IC50 (Adrenergic α1A): 268 ± 12 nM | n (Adrenergic α1A): 1.03 ± 0.089 | inhibition at 0.3 µM (Adrenergic α1A; 0.3 μM): 51% | Ki (Adrenergic α1A; read-out: ki): 108 ± 5 nM | Ki (Adrenergic α1A; α1A, read-out: Affinity): 108 nM | IC50 (Adrenergic α2A): 2820 ± 275 nM | Ki (Adrenergic α2A): 1060 ± 103 nM | n (Adrenergic α2A): 0.969 ± 0.012 | inhibition at 3 µM (Adrenergic α2A; 3 μM): 51% | receptor occupancy by PET (5-HT1A receptors [1]): occupies | transporter occupancy by PET (5HT Transporter): occupies | antidepressant effect (immobility) (mice [2]): antidepressant effects in this assay comparable to imipramine | reduction of immobility, fraction of that of the vehicle control group (mice [3]; 10.0 mg/kg s.c.): more than ½ | duration of immobility compared with controls (mice [3]; 10.0 mg/kg s.c., p<0.01): significantly reduced immobility | reduction of immobility, fraction of that of the vehicle control group (mice [3]; 30 mg/kg p.o., 60 minutes prior): more than ½ | duration of immobility compared to the vehicle control group (mice [3]; 30 mg/kg p.o., 60 minutes prior, p<0.01): significantly reduced immobility | duration of immobility (mice [3]; all doses tested: 2.0, 5.0, 10.0 mg/kg s.c., 15 minutes prior): reduced immobility | EC50 (5-HT1A receptors [4]; GTPγ35S, CHO membranes): 310 nM | Emax (5-HT1A receptors [4]; read-out: maximum efficacy): 66% | in vivo antipsychotic activity (mice [5]): not shown to be efficacious
